Test results from article PMC7822874, “Chemoprotective antimalarials identified through quantitative high-throughput screening of Plasmodium blood and liver stage parasites” (Scientific Reports, 2021).
Where “and” joins values, the source holds several entries; their conditions need not be identical. Equal entries are not always repeated. Where two headings read alike, the source gives them in different places.

Legend:
[1] = test system: T1, Plasmodium falciparum Dd2-attB-ScDHODH (transgenic line expressing yeast DHODH), asexual blood stages; assay: organism not typed; set-up: replicate k of 3 (each line is one of three independent assays; the three lines of one compound and parasite line follow each other)
T1 construct: Dd2-attB-ScDHODH, the transgenic line that expresses yeast DHODH
In short: (§1)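 We compare activity in parasites carrying fumarate-using yeast DHODH with that in the parental line; mETC or parasite DHODH inhibitors are bypassed by this enzyme. Data come from three independent assays, analysed by two-sided Student's t-tests.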

[2] = test system: T2, Plasmodium falciparum Dd2-attB (parental line), asexual blood stages; assay: microbe, parasite or virus in culture; set-up: replicate k of 3 (each line is one of three independent assays; the three lines of one compound and parasite line follow each other); details: n = 1; for Individual replicates / Log AC50 (M): 72 h; for AC50: Plasmodium falciparum, DD2, 72 h, read-out: Individual replicates / Log AC50 (converted)
T2 construct: Dd2-attB, the isogenic parental line
In short: as §1

[3] = 72 h; n = 1; read-out: Individual replicates / Log AC50 (converted)

Structure (SMILES)	Individual replicates / Log AC50 (M) ([1]; 72 h, n = 1)	AC50 [1, 3] [M]	Individual replicates / Log AC50 (M) [2]	AC50 [2] [µM]	Individual replicates / Log AC50 (M) ([1]; 72 h; n = 1)	AC50 ([1]; 72 h, read-out: Individual replicates / Log AC50 (M) (converted); n = 1)
CN(C)CCn1nc(-c2ccccc2)nc1-c1ccccc1O [NCGC00390083-01]	-5.1486 Log AC50 (M)	7.97e-06	-5.1486 Log AC50 (M) and -5.1986 Log AC50 (M)	7.1		
CCCCOC(=O)c1ccnc2cc(C(OCCN3CCCCC3)c3ccccc3C)sc12 (centres unmarked) [NCGC00481621-01]	-4.7986 Log AC50 (M)	1.42e-05	-5.0986 Log AC50 (M) and -5.0486 Log AC50 (M)	8.94		
Cc1nn2c(c1-c1ccccc1Oc1ccccc1)N(CCCc1ccccc1)CCC2 [NCGC00499718-01]		1.59e-05	-4.7986 Log AC50 (M)	15.9	-4.7986 Log AC50 (M)	
O=C(O)c1ccc(O)c2ncc(N3CCCNCC3)cc12 [NCGC00241047-01]	-4.7986 Log AC50 (M)	1.59e-05	-4.8986 Log AC50 (M) and -4.8486 Log AC50 (M)	15.9		
O=C(O)c1ccnc(-n2ncc(C(CC3CC3)OCCN3CCCCC3)c2-c2cccc(-c3ccccc3)c2)c1 (centres unmarked) [NCGC00487050-01]	-4.7986 Log AC50 (M) and -4.7486 Log AC50 (M)	1.78e-05	-4.7986 Log AC50 (M) and -4.8486 Log AC50 (M)	15.9		
CCOc1ccc(-c2[nH]c3c(C#N)cnn3c2NC2CCCC2)cc1 [NCGC00120007-02]	-4.8486 Log AC50 (M)	1.78e-05	-4.7486 Log AC50 (M)	14.2		
Cc1ccc(C(CCN2CCCCC2)c2cc3cccc(C(=O)O)c3[nH]2)cc1 (centres unmarked) [NCGC00389137-01]	-5.3486 Log AC50 (M) and -5.0486 Log AC50 (M)		-5.5486 Log AC50 (M) and -5.3986 Log AC50 (M) and -5.1486 Log AC50 (M)			
N[C@H]1CCN(c2cnc3c(O)ccc(C(=O)O)c3c2)C1 [NCGC00241041-01]		1.59e-05		14.2		
O=C(Nc1ccccc1F)c1ccc(O)c2ncccc12 [NCGC00183800-01]	-5.2986 Log AC50 (M) and -5.0486 Log AC50 (M)	5.64e-06	-5.1986 Log AC50 (M) and -5.2486 Log AC50 (M)	7.1		
CCOC(=O)CCNc1cc(N2CCc3ccccc3CC2)nc(-c2cccnc2)n1 [NCGC00351550-01]	-4.7986 Log AC50 (M)		-4.8986 Log AC50 (M)	14.2		
Oc1ccc(COc2cccc3ccccc23)c2cccnc12 [NCGC00183380-01]			-4.7986 Log AC50 (M) and -4.7486 Log AC50 (M)	20		1.59e-05
COc1cc(CN2CCc3nc(N4CCN(c5ncccn5)CC4)ncc3C2)cc(OC)c1OC [NCGC00131437-02]	-5.1486 Log AC50 (M) and -5.0986 Log AC50 (M)	7.1e-06	-5.3486 Log AC50 (M) and -5.1486 Log AC50 (M)	5.64		
CC(C)c1ccc(Nc2c(-c3ccccn3)nc3ccccn23)cc1 [NCGC00104490-03]	-5.0986 Log AC50 (M)	5.64e-06	-5.1986 Log AC50 (M) and -5.1486 Log AC50 (M)	5.64		
CN(C)CC1CCN(C2CCN(C(=O)c3cccc(-c4cc(O)c5ncccc5c4)c3)CC2)CC1 [NCGC00247736-01]	-4.7986 Log AC50 (M) and -5.0486 Log AC50 (M)		-5.3486 Log AC50 (M) and -4.8486 Log AC50 (M) and -5.1486 Log AC50 (M)			
O=C(NC1=CC(=O)c2ccccc2C1=O)c1ccccc1 [NCGC00357425-01]	-5.6486 Log AC50 (M) (2×) and -5.2986 Log AC50 (M)		-5.5986 Log AC50 (M) and -5.7986 Log AC50 (M) and -5.3486 Log AC50 (M)			
CN(C)CC1CCCN(C2CCN(C(=O)c3cccc(-c4cc(O)c5ncccc5c4)c3)CC2)C1 (centres unmarked) [NCGC00247737-01]	-5.4486 Log AC50 (M)	6.33e-06	-5.3986 Log AC50 (M) and -5.3486 Log AC50 (M)	5.64		
CCCN1CCCc2cc(CN(CCCN3CCOCC3)C(=O)Nc3ccc(Cl)c(Cl)c3)ccc21 [NCGC00140597-02]	-5.3986 Log AC50 (M) and -5.0986 Log AC50 (M)	3.99e-06	-5.3486 Log AC50 (M) and -5.2986 Log AC50 (M)	3.99		
O=C(O)c1ccnc(-n2ncc(C(OCCN3CCCCC3)c3cccc(-c4ccccc4)c3)c2-c2cccc(-c3ccccc3)c2)c1 (centres unmarked) [NCGC00487052-02]	-5.1486 Log AC50 (M) and -5.2486 Log AC50 (M)		-5.3986 Log AC50 (M) and -5.4486 Log AC50 (M) and -5.3486 Log AC50 (M)			
COC(=O)c1ccnc(NCc2ccc(O)c3ncccc23)c1 [NCGC00241031-01]	-4.7986 Log AC50 (M)	1.26e-05	-4.8986 Log AC50 (M) and -4.7486 Log AC50 (M)	15.9		
O=C(O)c1ccc(O)c2ncc(N3CCCN(C4CCCC4)CC3)cc12 [NCGC00241765-01]	-4.7486 Log AC50 (M) and -4.6986 Log AC50 (M)	2e-05	-4.7486 Log AC50 (M)	17.8		
CC(C)OC(=O)c1ccnc2cc(C(OCCN3CCCCC3)c3cccc(N)c3)sc12 (centres unmarked) [NCGC00488684-01]	-5.0986 Log AC50 (M)	1.26e-05	-5.1986 Log AC50 (M) and -5.1486 Log AC50 (M)	7.1		
Oc1ccc(/C=C/c2ccccc2)c2cccnc12 [NCGC00184900-01]	-5.1986 Log AC50 (M) and -4.7986 Log AC50 (M)		-5.2486 Log AC50 (M) and -5.2986 Log AC50 (M)	6.33		
Oc1ccc(CNc2cc(Cl)ccn2)c2cccnc12 [NCGC00241028-01]	-5.3486 Log AC50 (M) and -5.2986 Log AC50 (M)	6.33e-06	-5.2986 Log AC50 (M)	5.03		
Oc1cc(-c2ccc(CN3CCOCC3)cc2)cc2cccnc12 [NCGC00247750-01]	-5.2986 Log AC50 (M) and -5.1486 Log AC50 (M)	5.03e-06	-5.2986 Log AC50 (M) and -5.3986 Log AC50 (M)	5.03		
O=C(Nc1ccccc1F)c1ccc(Cn2nc(N3CCN(c4ccccc4)CC3)ccc2=O)o1 [NCGC00127944-02]	-5.0986 Log AC50 (M) and -5.0486 Log AC50 (M)	8.94e-06	-5.1486 Log AC50 (M) and -5.0986 Log AC50 (M)	7.97		
CN(C)[S+](=O)([O-])c1cccc(-c2cc(O)c3ncccc3c2)c1 [NCGC00247754-01]	-5.2986 Log AC50 (M) and -5.1486 Log AC50 (M)	5.03e-06	-5.2986 Log AC50 (M)	5.64		
Cc1cccc(CN2CCCn3nc(C)c(-c4ccccc4Oc4ccccc4)c32)n1 [NCGC00499720-01]	-4.7986 Log AC50 (M)	1.59e-05	-4.7486 Log AC50 (M)	20		
CN(C)CCn1nc(-c2ccccc2O)nc1-c1ccccc1 [NCGC00390082-01]	-4.7986 Log AC50 (M)	1.26e-05	-4.7486 Log AC50 (M) and -4.8486 Log AC50 (M)	14.2		
CC1(C)OB(c2ccc(O)c3ncc(N4CCNCC4)cc23)OC1(C)C [NCGC00241053-01]	-5.0486 Log AC50 (M) and -4.9986 Log AC50 (M)	7.1e-06	-4.8986 Log AC50 (M) and -5.0486 Log AC50 (M)	8.94		
Oc1ccc(CNc2ccccc2C(F)(F)F)c2cccnc12 [NCGC00184897-01]	-4.8486 Log AC50 (M) and -4.7486 Log AC50 (M)	1.59e-05	-4.8986 Log AC50 (M) and -4.7986 Log AC50 (M)	12.6		
